≈ marks a conversion by molar mass, not a printed value. Where “and” joins values, the source holds several entries; their conditions need not be identical. Equal values may be shown once. One block for each compound: values may come before it.
How the values were obtained:
[1] = tested on: M. intracellulare ATCC 23068; test: In vitro antibacterial assay (modified method of Franzblau, Alamar Blue); type: cell-based; conditions: Mycobacterium intracellulare, ATCC23068, M. intracellulare ATCC 23068; for IC50: read-out: IC50 (50% inhibitory concentration)
C. krusei ATCC 6258 = test: In vitro antimicrobial assay (modified NCCLS), Candida media pH 4.5; type: cell-based, Candida krusei; conditions: Pichia kudriavzevii, ATCC6258; C. krusei ATCC 6258, pH 4.5; read-out: IC50 (50% inhibitory concentration)
C. glabrata ATCC 90030 = test: as above; type: cell-based, Candida glabrata; conditions: Nakaseomyces glabratus, ATCC90030, C. glabrata ATCC 90030, pH 4.5; for IC50: read-out: IC50 (50% inhibitory concentration); for MIC: read-out: MIC
[2] = tested on: Candida albicans ATCC 90028; test: In vitro antifungal susceptibility testing (modified NCCLS method), media pH 7.3; type: cell-based; conditions: ATCC90028; Candida albicans ATCC 90028, Table 1; read-out: MIC (Minimum Inhibitory Concentration)
C. albicans ATCC 90028 = test: In vitro antimicrobial assay (modified NCCLS), Candida media pH 4.5; type: cell-based, Candida albicans; conditions: Candida albicans, ATCC90028, C. albicans ATCC 90028, pH 4.5, Table 3; for IC50: read-out: IC50 (50% inhibitory concentration); for MFC: read-out: MFC; for MIC: read-out: MIC
[3] = tested on: Cryptococcus neoformans ATCC 90113; test: In vitro antifungal susceptibility testing (modified NCCLS method); type: cell-based; conditions: Cryptococcus neoformans, ATCC90113; Cr. neoformans ATCC 90113, Table 3; read-out: IC50 (50% inhibitory concentration)
Botrytis cinerea = test: 96-well microtiter fungal growth assay; type: cell-based;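 further: percent relative to untreated positive growth controls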
Description: (§1) Pathogen collection. Isolates of Colletotrichum acutatum Simmonds, Colletotrichum fragariae Brooks, and Colletotrichum gloeosporioides (Penz.) Penz. & Sacc. in Penz. were obtained from B. J. Smith, USDA, ARS, Small Fruit Research Station, Poplarville, Mass. Colletotrichum fragariae (isolate CF63), C. acutatum (isolate CAGoff), and C. gloeosporioides (isolate CG162) were used for all pathogen and bioautography studies. Isolate CF63 is one of the most virulent isolates at infecting strawberry plants and inducing both crown and fruit rot (Smith and Black, 1990). CF63, CAGoff, and CG162 were used as standard test isolates because of our extensive knowledge of these isolates and their known fungicide sensitivity profiles in both bioautography and microtiter formats. The three Colletotrichum species were isolated from strawberry (Fragaria xananassa Duchesne). Botrytis cinerea Pers.:Fr, was isolated from commercial grape (Vitis vinifera L.) and Fusarium oxysporum Schlechtend:Fr from orchid (Cynoches sp.) by David E. Wedge, USDA ARS Natural Products Utilization Research Unit. Phomopsis viticola (Sacc.) and P. obscurans (Ellis & Everh.) Sutton were from Mike A. Ellis, Ohio State University, Wooster, Ohio. Fungi were grown on potato-dextrose agar (PDA, Difco, Detroit Mich.) in 9 cm petri dishes and incubated in a growth chamber at 24±2° C. and under cool-white fluorescent lights ([…]·m^−2·sec^−1 light) with 12-h photoperiod.
(§2) Inoculum preparation. Conidia were harvested from 7–10 day-old cultures by flooding plates with 5 mL of sterile distilled water and dislodging conidia by softly brushing the colonies with an L-shaped glass rod. Conidial suspensions were filtered through sterile miracloth (Calbiochem-Novabiochem Corp., La Jolla Calif.) to remove mycelia. Conidia concentrations were determined photometrically, from a standard curve based on the absorbance at 625 nm and suspensions were then adjusted with sterile distilled water to a concentration of 1.0×10^6 conidia/mL.
(§3) Microtiter assay. A standardized 96-well microtiter plate assay developed for discovery of natural product fungicidal agents. A 96-well microtiter assay was used to determine sensitivity of B. cinerea, C. acutatum, C. fragariae, C. gloeosporioides, F. oxysporum, Phomopsis viticola, and P. obscurans to the various antifungal agents in comparison with known fungicidal standards. Vinclozolin, captan, and thiabendazole, which represent three different modes of action, were used as standards in this experiment. Each fungus was challenged in a dose-response format using test compounds where the final treatment concentrations were 0.3, 3.0 and 30.0 μM. Microtiter plates (Nunc MicroWell, untreated; Roskilde, Denmark) were covered with a plastic lid and incubated in a growth chamber at 24±1 C and 12 h photoperiod under 60±5 μmol light. Growth was then evaluated by measuring absorbance of each well at 620 nm using a microplate photometer (Packard Spectra Count, Packard Instrument Co., Downers Grove, Ill.).
(§4) Microbioassay Experimental Design. Chemical sensitivity of each fungus 96-well microtiter assay is used to determine sensitivity of B. cinerea, C. acutatum, C. fragariae, C. gloeosporioides, F. oxysporum, Phomopsis viticola, and P. obscurans. Each chemical is evaluated in duplicate at each dose (0.3, 3.0 and 30.0 μM) and repeated twice in time. Sixteen wells containing broth and inoculum serves as positive controls, eight wells containing solvent at the appropriate concentration and broth without inoculum are used as negative controls. Mean absorbance values and standard errors is used to evaluate fungal growth at 48 hrs and 72 hrs except for P. obscurans and P. viticola the data are recorded at 120 hrs. […] Treatments are arranged as a split-plot design replicated twice in time. Whole-plots were fungal isolates and sub-plots are chemicals. Each dose level and response time is analyzed separately. […]

Colletotrichum acutatum = test: 96-well microtiter fungal growth assay; type: cell-based;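 further: percent relative to untreated positive growth controls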
Description: as §1, §2, §3, §4

Fusarium oxysporum = test: 96-well microtiter fungal growth assay; type: cell-based;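 further: percent relative to untreated positive growth controls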
Description: as §1, §2, §3, §4

Colletotrichum fragariae = test: 96-well microtiter fungal growth assay; type: cell-based;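 further: percent relative to untreated positive growth controls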
Description: as §1, §2, §3, §4

[4] = tested on: Colletotrichum gloeosporioides; test: 96-well microtiter fungal growth assay; type: cell-based;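 further: percent relative to untreated positive growth controls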
Description: as §1, §2, §3, §4

Phomopsis obscurans = test: 96-well microtiter fungal growth assay; type: cell-based
Description: as §1, §2, §3
(§5) Microbioassay Experimental Design. Chemical sensitivity of each fungus 96-well microtiter assay is used to determine sensitivity of B. cinerea, C. acutatum, C. fragariae, C. gloeosporioides, F. oxysporum, Phomopsis viticola, and P. obscurans. Each chemical is evaluated in duplicate at each dose (0.3, 3.0 and 30.0 μM) and repeated twice in time. Sixteen wells containing broth and inoculum serves as positive controls, eight wells containing solvent at the appropriate concentration and broth without inoculum are used as negative controls. […] Treatments are arranged as a split-plot design replicated twice in time. Whole-plots were fungal isolates and sub-plots are chemicals. Each dose level and response time is analyzed separately. The SAS system's analysis of variance procedure (Statistical Analysis System, Cary, N.C.) is used to identify significant factors and Fisher's protected LSD is used to separate means.

Phomopsis viticola = test: 96-well microtiter fungal growth assay; type: cell-based;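 further: percent relative to untreated positive growth controls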
Description: as §1, §2, §3, §5

MIC [1]: 20 µg/mL (≈ 83.2 µM)
IC50 [1]: 10 µg/mL (≈ 41.6 µM)
IC50 (C. krusei ATCC 6258): 4.5 µg/mL (≈ 18.7 µM)
IC50 (C. glabrata ATCC 90030): 1.5 µg/mL (≈ 6.24 µM)
MIC (C. glabrata ATCC 90030): 2.5 µg/mL (≈ 10.4 µM)
MIC [2]: 50 µg/mL (≈ 208 µM)
melting point: 125 °C and 124 °C
IC50 (C. albicans ATCC 90028): 1 µg/mL (≈ 4.16 µM)
MIC (C. albicans ATCC 90028): 2.5 µg/mL (≈ 10.4 µM)
IC50 [3]: 20 µg/mL (≈ 83.2 µM)
SMILES: CC1=CC(=O)/C(=C(O)/C=C/c2ccccc2)C1=O [Compound 2, coruscanone B]
MFC (C. glabrata ATCC 90030; read-out: MFC): 5 µg/mL (≈ 20.8 µM)
MFC (C. albicans ATCC 90028): 5 µg/mL (≈ 20.8 µM)

IC50 (C. krusei ATCC 6258): 10 µg/mL (≈ 60.2 µM)
IC50 (C. glabrata ATCC 90030): 3.5 µg/mL (≈ 21.1 µM)
MIC (C. glabrata ATCC 90030): 5 µg/mL (≈ 30.1 µM)
IC50 (C. albicans ATCC 90028): 2 µg/mL (≈ 12 µM)
MIC (C. albicans ATCC 90028): 5 µg/mL (≈ 30.1 µM)
IC50 [3]: 5 µg/mL (≈ 30.1 µM)
SMILES: COC(C)=C1C(=O)C=C(C)C1=O [Compound 6, 2-(1-methoxy-ethylidene)-4-methyl-cyclopent-4-ene-1,3-dione]
MFC (C. albicans ATCC 90028): 20 µg/mL (≈ 120 µM)

MIC [1]: 0.63 µg/mL (≈ 1.9 µM)
SMILES: O=C(O)c1cn(C2CC2)c2cc(N3CCNCC3)c(F)cc2c1=O [CIP, ciprofloxacin, reference compound]
IC50 [1]: 0.3 µg/mL (≈ 0.905 µM)
MBC ([1]; read-out: MBC (Minimum Bactericidal Concentration)): 1.25 µg/mL (≈ 3.77 µM)

SMILES: CO/C=C(/C(=O)OC)c1ccccc1Oc1cc(Oc2ccccc2C#N)ncn1 [Azoxystrobin]
Mean percent fungal growth inhibition of Botrytis cinerea (Botrytis cinerea; 0.3 μm, 48 hrs): −30.4 ± 40.8%
Mean percent fungal growth inhibition of Botrytis cinerea (Botrytis cinerea; 0.3 μm, 72 hrs): −67.3 ± 7.6%
Mean percent fungal growth inhibition of Botrytis cinerea (Botrytis cinerea; 3.0 μm, 48 hrs): −45.8 ± 32.5%
Mean percent fungal growth inhibition of Botrytis cinerea (Botrytis cinerea; 3.0 μm, 72 hrs): −79.8 ± 3.6%
Mean percent fungal growth inhibition of Botrytis cinerea (Botrytis cinerea; 30 μm, 48 hrs): −58.3 ± 26.5%
Mean percent fungal growth inhibition of Botrytis cinerea (Botrytis cinerea; 30 μm, 72 hrs): −89.1 ± 2.1%
Mean percent fungal growth inhibition of Colletotrichum acutatum (Colletotrichum acutatum; 0.3 μm, 48 hrs): −75.1 ± 1.8%
Mean percent fungal growth inhibition of Colletotrichum acutatum (Colletotrichum acutatum; 0.3 μm, 72 hrs): −46.0 ± 1.4%
Mean percent fungal growth inhibition of Colletotrichum acutatum (Colletotrichum acutatum; 3.0 μm, 48 hrs): −89.2 ± 1.8%
Mean percent fungal growth inhibition of Colletotrichum acutatum (Colletotrichum acutatum; 3.0 μm, 72 hrs): −77.4 ± 1.6%
Mean percent fungal growth inhibition of Colletotrichum acutatum (Colletotrichum acutatum; 30 μm, 48 hrs): −94.3 ± 1.1%
Mean percent fungal growth inhibition of Colletotrichum acutatum (Colletotrichum acutatum; 30 μm, 72 hrs): −84.1 ± 0.8%
Mean percent fungal growth inhibition of Fusarium oxysporum (Fusarium oxysporum; 0.3 μm, 48 hrs): −13.0 ± 6.0%
Mean percent fungal growth inhibition of Fusarium oxysporum (Fusarium oxysporum; 0.3 μm, 72 hrs): 3.8 ± 3.6%
Mean percent fungal growth inhibition of Fusarium oxysporum (Fusarium oxysporum; 3.0 μm, 48 hrs): −66.4 ± 1.4%
Mean percent fungal growth inhibition of Fusarium oxysporum (Fusarium oxysporum; 3.0 μm, 72 hrs): −40.1 ± 3.5%
Mean percent fungal growth inhibition of Fusarium oxysporum (Fusarium oxysporum; 30 μm, 48 hrs): −87.3 ± 0.6%
Mean percent fungal growth inhibition of Fusarium oxysporum (Fusarium oxysporum; 30 μm, 72 hrs): −64.6 ± 0.8%
Mean percent fungal growth inhibition of Colletotrichum fragariae (Colletotrichum fragariae; 0.3 μm, 48 hrs): −68.8 ± 4.0%
Mean percent fungal growth inhibition of Colletotrichum fragariae (Colletotrichum fragariae; 0.3 μm, 72 hrs): −33.5 ± 17.4%
Mean percent fungal growth inhibition of Colletotrichum fragariae (Colletotrichum fragariae; 3.0 μm, 48 hrs): −78.9 ± 4.4%
Mean percent fungal growth inhibition of Colletotrichum fragariae (Colletotrichum fragariae; 3.0 μm, 72 hrs): −80.6 ± 4.8%
Mean percent fungal growth inhibition of Colletotrichum fragariae (Colletotrichum fragariae; 30 μm, 48 hrs): −82.0 ± 4.9%
Mean percent fungal growth inhibition of Colletotrichum fragariae (Colletotrichum fragariae; 30 μm, 72 hrs): −86.4 ± 4.5%
Mean percent fungal growth inhibition of Colletotrichum gloeosporoides ([4]; 0.3 μm, 48 hrs): −91.2 ± 2.1%
Mean percent fungal growth inhibition of Colletotrichum gloeosporoides ([4]; 0.3 μm, 72 hrs): −71.0 ± 1.4%
Mean percent fungal growth inhibition of Colletotrichum gloeosporoides ([4]; 3.0 μm, 48 hrs): −96.3 ± 0.9%
Mean percent fungal growth inhibition of Colletotrichum gloeosporoides ([4]; 3.0 μm, 72 hrs): −87.6 ± 2.0%
Mean percent fungal growth inhibition of Colletotrichum gloeosporoides ([4]; 30 μm, 48 hrs): −97.7 ± 0.5%
Mean percent fungal growth inhibition of Colletotrichum gloeosporoides ([4]; 30 μm, 72 hrs): −89.8 ± 1.1%
Percent change in fungal growth vs control (negative = inhibition) (Phomopsis obscurans; 0.3 μm, 120 hrs): −73.2 ± 6.7%
Percent change in fungal growth vs control (negative = inhibition) (Phomopsis obscurans; 0.3 μm, 144 hrs): −70.2 ± 7.0%
Percent change in fungal growth vs control (negative = inhibition) (Phomopsis obscurans; 3.0 μm, 120 hrs): −90.9 ± 6.5%
Percent change in fungal growth vs control (negative = inhibition) (Phomopsis obscurans; 3.0 μm, 144 hrs): −87.5 ± 5.3%
Percent change in fungal growth vs control (negative = inhibition) (Phomopsis obscurans; 30 μm, 120 hrs): −99.3 ± 0.5%
Percent change in fungal growth vs control (negative = inhibition) (Phomopsis obscurans; 30 μm, 144 hrs): −98.2 ± 0.6%
Mean percent fungal growth inhibition of Phomopsis viticola (Phomopsis viticola; 0.3 μm, 120 hrs): −29.5 ± 45.0%
Mean percent fungal growth inhibition of Phomopsis viticola (Phomopsis viticola; 0.3 μm, 144 hrs): −73.4 ± 16.0%
Mean percent fungal growth inhibition of Phomopsis viticola (Phomopsis viticola; 3.0 μm, 120 hrs): −124.5 ± 33.0%
Mean percent fungal growth inhibition of Phomopsis viticola (Phomopsis viticola; 30 μm, 120 hrs): −154.1 ± 39.4%
Mean percent fungal growth inhibition of Phomopsis viticola (Phomopsis viticola; 30 μm, 144 hrs): −97.9 ± 1.3%

From patent publication US7109380B2, “Cyclopentenedione antifungal compounds and methods for their use” (The University of Mississippi, priority 2004, dated 2006)
